Source: US20230233600A1, “IMPROVED VIRUCIDAL FORMULATIONS” (priority 2020, published 2023)
Where two headings read alike, the source gives them in different places.

Test system: SARS-CoV-2
Type: cell-based
Conditions: for LRV (log reduction value), reduction of virus compared to the virus control / Virus Titer: solution at 90%
[1] = incubation 15 seconds at 37° C.
[2] = incubation 15 minutes at 37° C.

## CCO [Ethanol]
[1]
  LRV (log reduction value), reduction of virus compared to the virus control: 4.3
  Virus Titer: 0.67 Log10 CCID50 of virus per mL
Incubation 5 minutes at 37° C.
  LRV (log reduction value), reduction of virus compared to the virus control: >4.3
  Virus Titer: <0.67 Log10 CCID50 of virus per mL
[2]
  LRV (log reduction value), reduction of virus compared to the virus control: >4.3
  Virus Titer: <0.67 Log10 CCID50 of virus per mL
Positive control, contact time not given
  virus titer (baseline reached): 0.67 log10 CCID50/ml
